Measured values as given in ChEMBL document CHEMBL1201862, “PubChem BioAssay data set” (2004).
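Cells were grown in 96-well plates and exposed to each compound for 48 hours at five concentrations; endpoints were interpolated linearly between bracketing concentrations, or set to the highest concentration if not reached. GI50 = concentration required for 50% inhibition of growth.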 Calls of active or inactive are those of the source. Rule as the data show it: active = GI50 up to about 1.1 µM and inactive = higher.

Assays:
Experiment in all cases: inhibition of tumour cell growth, NCI panel, 48 h
786-0 = test system: 786-0
A498 = test system: A498
A549 = test system: A549
ACHN = test system: ACHN
CAKI-1 = test system: CAKI-1
CCRF-CEM = test system: CCRF-CEM
COLO 205 = test system: COLO 205
DU-145 = test system: DU-145
EKVX = test system: EKVX
HCC 2998 = test system: HCC 2998
HCT-116 = test system: HCT-116
HCT-15 = test system: HCT-15
HL-60 = test system: HL-60
HOP-62 = test system: HOP-62
HT-29 = test system: HT-29
Hs-578T = test system: Hs-578T
IGROV-1 = test system: IGROV-1
K562 = test system: K562
KM12 = test system: KM12
LOX IMVI = test system: LOX IMVI
M14 = test system: M14
MCF7 = test system: MCF7
MDA-MB-231 = test system: MDA-MB-231
MDA-MB-435 = test system: MDA-MB-435
MDA-N = test system: MDA-N
MOLT-4 = test system: MOLT-4
Malme-3M = test system: Malme-3M
NCI-H226 = test system: NCI-H226
NCI-H23 = test system: NCI-H23
NCI-H460 = test system: NCI-H460
NCI-H522 = test system: NCI-H522
NCI/ADR-RES = test system: NCI/ADR-RES
OVCAR-3 = test system: OVCAR-3
OVCAR-4 = test system: OVCAR-4
OVCAR-5 = test system: OVCAR-5
OVCAR-8 = test system: OVCAR-8
PC-3 = test system: PC-3
RXF 393 = test system: RXF 393
SF-268 = test system: SF-268
SF-295 = test system: SF-295
SF-539 = test system: SF-539
SK-MEL-28 = test system: SK-MEL-28
SK-MEL-2 = test system: SK-MEL-2
SK-MEL-5 = test system: SK-MEL-5
SK-OV-3 = test system: SK-OV-3
SN12C = test system: SN12C
SNB-19 = test system: SNB-19
SNB-75 = test system: SNB-75
SR = test system: SR
SW-620 = test system: SW-620
T47D = test system: T47D
U-251 = test system: U-251
UACC-62 = test system: UACC-62
UO-31 = test system: UO-31
RPMI-8226 = test system: RPMI-8226
TK-10 = test system: TK-10
UACC-257 = test system: UACC-257

O=C1NC(c2cccc3ccccc23)Nc2ccc(Cl)cc21 (stereo unspecified)
GI50 (786-0): 0.00193 µM (active)
GI50 (A498): 0.00143 µM (active)
GI50 (A549): 0.00509 µM (active)
GI50 (ACHN): 0.00268 µM (active)
GI50 (CAKI-1): 0.00118 µM (active)
GI50 (CCRF-CEM): 0.000618 µM (active)
GI50 (COLO 205): 0.00239 µM (active)
GI50 (DU-145): 0.00452 µM (active)
GI50 (EKVX): 0.00235 µM (active)
GI50 (HCC 2998): 0.0105 µM (active)
GI50 (HCT-116): 0.000912 µM (active)
GI50 (HCT-15): 0.0018 µM
GI50 (HL-60): 0.000133 µM (active)
GI50 (HOP-62): 0.00261 µM (active)
GI50 (HT-29): 0.00166 µM (active)
GI50 (Hs-578T): 0.000624 µM (active)
GI50 (IGROV-1): 0.0181 µM (active)
GI50 (K562): < 0.0001 µM (active)
GI50 (KM12): 0.0022 µM (active)
GI50 (LOX IMVI): 0.000482 µM (active)
GI50 (M14): 0.00115 µM (active)
GI50 (MCF7): 0.0741 µM (active)
GI50 (MDA-MB-231): 0.00838 µM (active)
GI50 (MDA-MB-435): < 0.0001 µM (active)
GI50 (MDA-N): < 0.0001 µM (active)
GI50 (MOLT-4): 0.00174 µM (active)
GI50 (Malme-3M): 0.00176 µM (active)
GI50 (NCI-H226): 0.00432 µM (active)
GI50 (NCI-H23): 0.0579 µM (active)
GI50 (NCI-H460): 0.0038 µM (active)
GI50 (NCI-H522): 0.000546 µM (active)
GI50 (NCI/ADR-RES): 0.00111 µM (active)
GI50 (OVCAR-3): 0.0016 µM (active)
GI50 (OVCAR-4): 0.327 µM (active)
GI50 (OVCAR-5): 0.0244 µM (active)
GI50 (OVCAR-8): 0.00935 µM (active)
GI50 (PC-3): 0.00165 µM (active)
GI50 (RXF 393): 0.00394 µM (active)
GI50 (SF-268): 0.0035 µM (active)
GI50 (SF-295): 0.000516 µM (active)
GI50 (SF-539): < 0.01 µM (active)
GI50 (SK-MEL-28): < 0.01 µM (active)
GI50 (SK-MEL-2): 0.00204 µM (active)
GI50 (SK-MEL-5): 0.00106 µM (active)
GI50 (SK-OV-3): 0.00105 µM (active)
GI50 (SN12C): 0.00828 µM (active)
GI50 (SNB-19): 0.00189 µM (active)
GI50 (SNB-75): 0.000164 µM (active)
GI50 (SR): 0.000229 µM (active)
GI50 (SW-620): 0.00168 µM (active)
GI50 (T47D): 20.5 µM (inactive)
GI50 (U-251): 0.000977 µM (active)
GI50 (UACC-62): 0.000214 µM (active)
GI50 (UO-31): 0.00319 µM (active)

O=Cc1cn(CCCCCCCCn2cc(C=O)c3ccccc32)c2ccccc12
GI50 (A498): 1.63 µM (inactive)
GI50 (A549): 6.59 µM (inactive)
GI50 (ACHN): > 10 µM (inactive)
GI50 (CAKI-1): > 10 µM (inactive)
GI50 (CCRF-CEM): > 10 µM (inactive)
GI50 (COLO 205): > 10 µM (inactive)
GI50 (DU-145): 8.05 µM (inactive)
GI50 (EKVX): > 10 µM (inactive)
GI50 (HCC 2998): > 10 µM (inactive)
GI50 (HCT-116): 7.4 µM (inactive)
GI50 (HCT-15): > 10 µM
GI50 (HL-60): 5.46 µM (inactive)
GI50 (HOP-62): > 10 µM (inactive)
GI50 (HT-29): > 10 µM (inactive)
GI50 (Hs-578T): 6.49 µM (inactive)
GI50 (IGROV-1): > 10 µM (inactive)
GI50 (K562): 3.27 µM (inactive)
GI50 (KM12): > 10 µM (inactive)
GI50 (LOX IMVI): 7.57 µM (inactive)
GI50 (M14): > 10 µM (inactive)
GI50 (MCF7): 7.13 µM (inactive)
GI50 (MDA-MB-231): > 10 µM (inactive)
GI50 (MDA-MB-435): > 10 µM (inactive)
GI50 (MDA-N): > 10 µM (inactive)
GI50 (MOLT-4): 6.37 µM (inactive)
GI50 (Malme-3M): > 10 µM (inactive)
GI50 (NCI-H226): 8.24 µM (inactive)
GI50 (NCI-H23): 2.19 µM (inactive)
GI50 (NCI-H460): 0.561 µM (active)
GI50 (NCI-H522): > 10 µM (inactive)
GI50 (NCI/ADR-RES): 5.15 µM (inactive)
GI50 (OVCAR-3): > 10 µM (inactive)
GI50 (OVCAR-4): > 10 µM (inactive)
GI50 (OVCAR-5): 8.79 µM (inactive)
GI50 (OVCAR-8): > 10 µM (inactive)
GI50 (PC-3): 4.22 µM (inactive)
GI50 (RPMI-8226): 3.96 µM (inactive)
GI50 (RXF 393): > 10 µM (inactive)
GI50 (SF-268): > 10 µM (inactive)
GI50 (SF-295): 6.41 µM (inactive)
GI50 (SF-539): > 10 µM (inactive)
GI50 (SK-MEL-28): > 10 µM (inactive)
GI50 (SK-MEL-2): > 10 µM (inactive)
GI50 (SK-MEL-5): 4.17 µM (inactive)
GI50 (SK-OV-3): > 10 µM (inactive)
GI50 (SN12C): > 10 µM (inactive)
GI50 (SNB-19): > 10 µM (inactive)
GI50 (SNB-75): 5.6 µM (inactive)
GI50 (SR): 9.57 µM (inactive)
GI50 (SW-620): > 10 µM (inactive)
GI50 (T47D): 3.91 µM (inactive)
GI50 (TK-10): > 10 µM (inactive)
GI50 (U-251): > 10 µM (inactive)
GI50 (UACC-62): > 10 µM (inactive)
GI50 (UO-31): > 10 µM (inactive)

CC(=O)NCC1(c2ccccc2)CCN(CC2COc3ccccc3O2)CC1 (stereo unspecified) [ACOXATRINE]
GI50 (786-0): > 100 µM (inactive)
GI50 (A498): > 100 µM (inactive)
GI50 (A549): > 100 µM (inactive)
GI50 (ACHN): > 100 µM (inactive)
GI50 (CAKI-1): > 100 µM (inactive)
GI50 (CCRF-CEM): > 100 µM (inactive)
GI50 (COLO 205): > 100 µM (inactive)
GI50 (DU-145): > 100 µM (inactive)
GI50 (EKVX): > 100 µM (inactive)
GI50 (HCC 2998): > 100 µM (inactive)
GI50 (HCT-116): > 100 µM (inactive)
GI50 (HCT-15): > 100 µM
GI50 (HL-60): > 100 µM (inactive)
GI50 (HOP-62): > 100 µM (inactive)
GI50 (HT-29): 39.4 µM (inactive)
GI50 (Hs-578T): > 100 µM (inactive)
GI50 (IGROV-1): > 100 µM (inactive)
GI50 (K562): > 100 µM (inactive)
GI50 (KM12): > 100 µM (inactive)
GI50 (LOX IMVI): 62.2 µM (inactive)
GI50 (M14): > 100 µM (inactive)
GI50 (MCF7): > 100 µM (inactive)
GI50 (MDA-MB-231): > 100 µM (inactive)
GI50 (MDA-MB-435): > 100 µM (inactive)
GI50 (MDA-N): > 100 µM (inactive)
GI50 (MOLT-4): > 100 µM (inactive)
GI50 (Malme-3M): > 100 µM (inactive)
GI50 (NCI-H226): > 100 µM (inactive)
GI50 (NCI-H23): > 100 µM (inactive)
GI50 (NCI-H460): > 100 µM (inactive)
GI50 (NCI-H522): > 100 µM (inactive)
GI50 (NCI/ADR-RES): > 100 µM (inactive)
GI50 (OVCAR-3): > 100 µM (inactive)
GI50 (OVCAR-4): > 100 µM (inactive)
GI50 (OVCAR-5): > 100 µM (inactive)
GI50 (OVCAR-8): > 100 µM (inactive)
GI50 (PC-3): > 100 µM (inactive)
GI50 (RPMI-8226): > 100 µM (inactive)
GI50 (RXF 393): > 100 µM (inactive)
GI50 (SF-268): > 100 µM (inactive)
GI50 (SF-295): > 100 µM (inactive)
GI50 (SF-539): > 100 µM (inactive)
GI50 (SK-MEL-28): > 100 µM (inactive)
GI50 (SK-MEL-2): > 100 µM (inactive)
GI50 (SK-MEL-5): > 100 µM (inactive)
GI50 (SK-OV-3): > 100 µM (inactive)
GI50 (SN12C): > 100 µM (inactive)
GI50 (SNB-19): > 100 µM (inactive)
GI50 (SNB-75): > 100 µM (inactive)
GI50 (SR): > 100 µM (inactive)
GI50 (SW-620): > 100 µM (inactive)
GI50 (T47D): > 100 µM (inactive)
GI50 (TK-10): > 100 µM (inactive)
GI50 (U-251): > 100 µM (inactive)
GI50 (UACC-257): > 100 µM (inactive)
GI50 (UACC-62): > 100 µM (inactive)
GI50 (UO-31): > 100 µM (inactive)
